Read-outs that look alike come from different tables or passages of the source.
What was measured:
[1] = thermodynamic solubility in formulation vehicles (phosphate buffer pH 7.4 with excipients); format: physicochemical; conditions: thermodynamic from solid
Method: In view of developing a formulation suitable for parenteral administration, the quantitative solubility of Chemical Formula land the Chemical Formula 2 were determined in phosphate buffer pH 7.4, supplemented with solubility-enhancing excipients. The target concentration is 1-1.3 mg/mL.
Based on the qualitative solubility result determined for the PBS formulation vehicle containing Transcutol (Gattefossé, France) and TPGS (tocopherol polyethylene glycol succinate), the quantitative solubility of the compound of Chemical Formula 1 and the compound of Chemical Formula 2 was determined in those vehicles to assess the maximum solubility in those vehicles. The thermodynamic solubility was then determined in PBS buffer containing Transcutol (50% and 10%) and TPGS (20% and 10%) and also in the formulation vehicles containing PEG 400 (50%, with and without presence of 2% DMSO). Suspensions of the compound of Chemical Formula 1 and the compound of Chemical Formula 2 were prepared in the selected vehicles with a compound of Chemical Formula 1 concentration of about 3.5-5 mg/mL. After incubation for 24 hours at room temperature, the solids and liquid phases were separated. The concentration of API in solution was determined by HPLC analysis. The results can be found in FIG. 6.

[2] = long-term stability study, chemical purity by HPLC; format: physicochemical; conditions: up to 15 months, in words
Method: The physical and chemical stability study was performed on the compounds of Chemical Formula 2 and Chemical Formula 1 (for reference purposes). The long-term stability study was conducted at defined temperatures and relative humidity levels (25° C./60% relative humidity (RH) and 40° C./75% RH). At regular intervals, a solid sample was analyzed by XRPD, TGMS and HPLC.
The results of the chemical purity determination for the compounds of Chemical Formula 1 and Chemical Formula 2 after 1-, 3- and 15-month exposure to 25° C./60% RH and 40° C./75% RH is presented in FIGS. 4 and 5.

[3] = PK parameters in plasma after single administration; format: in vivo, Wistar rats; conditions: for AUC(0-inf) / AUC(0-t) / Cmax / Tmax: Wistar, rat, plasma
[4] = PK parameters after bid (twice a day) administration; format: in vivo; conditions: for Cmax1 / Tmax1: after first daily dosing; for Cmax2 / Tmax2: after second daily dosing; for AUC / AUC(0-t): in vivo; for AUC: read-out: AUC(12-24 h)
Source text: FIG. 10 and Table 4 show the PK properties of the compound of Chemical Formula 2 administered twice a day (bid).
FIG. 11 and Table 5 show the PK properties of the compound of Chemical Formula 1 administered twice per day.

[5] = test system: lung cancer cell line EBC-1; test: cancer cell proliferation inhibitory experiment (SRB); format: cell-based, human; conditions: EBC-1 cell line
Method: The following exemplary experimental protocol was performed to test the activity of the maleate salt compounds described herein.
An RPMI 1640 cell culture medium, fetal bovine serum (FBS) and trypsin were purchased from GIBCO Co., Ltd. (Grand Island, N.Y.), and sodium hydrogencarbonate, amphotericin B and gentamycin were used as signamic medical products. In addition, reagents such as sulforhodamine (SRB) B, Trisma Base, and trichloroacetic acid (TCA), which were reagents used in a cytotoxicity measurement experiment, were purchased from Sigma Chemical Co., Ltd. For MTS analysis, a Celltiter 96 Aqueous Non-Radioactive Cell Proliferation Assay product was purchased from Promega Co., Ltd. Further, a T-25 culture container used for cell culture, a 96-well plate and other disposable glass used for cell culture were obtained from Folkon (Lincoln Park, N.J.) products.
A drug used in the experiment was diluted as an experimental medium to a desired concentration in the test, and the final dimethylsulfoxide concentration was 0.5% or less.
Cancer cell lines used in the experiment were human-derived cancer cell lines, and a lung cancer cell line EBC-1. RPMI 1640 medium with 10% fetal bovine serum (FBS) was used and cultured in an incubator of 37° C. and 5% CO2 and subcultured once by 3 to 4 days.
Specifically, after the culture with the compound of the present disclosure was terminated, the culture solution was removed, and a cold TCA solution added to each well. The cells were left at 4° C. for 1 hour to be fixed. The TCA solution was removed, and the cells were dried at room temperature, incubated with a solution obtained by dissolving 0.4% SRB in a 1% acetic acid solution, left at room temperature for 30 minutes, and then stained. Extra SRB which was not bound to the cells was washed with a 1% acetic acid solution, and the SRB was eluted by adding a […] tris buffer solution (trisma base; unbuffered) of pH 10.3 to 10.5 to the stained cells.

With `CN1CCN(Cc2ccc(-c3cnc(N4CCOC(Cn5nnc6ncc(-c7cnn(C)c7)nc65)C4)nc3)cc2)CC1` (stereo not drawn) [Chemical Formula 1] as the compound, how does the solubility at 24 h ([1]; PBS formulation vehicle with 10% TPGS, pH 7.4, aqueous with cosolvent or surfactant or cyclodextrin, PBS vehicle containing 10% TPGS, 24 hours at room temperature) read?
Its solubility at 24 h is ≥ 1 mg/mL.

What about the solubility at 24 h ([1]; PBS formulation vehicle with 10% Transcutol, pH 7.4, aqueous with cosolvent or surfactant or cyclodextrin, PBS vehicle with only 10% Transcutol, 24 hours at room temperature) of the same compound?
Its solubility at 24 h is ~0.1 mg/mL.

What about the solubility at 24 h ([1]; PBS formulation vehicle with 20% TPGS, pH 7.4, aqueous with cosolvent or surfactant or cyclodextrin, PBS vehicle containing 20% TPGS, 24 hours at room temperature) of the same compound?
Its solubility at 24 h is ≥ 1 mg/mL.

And the solubility at 24 h ([1]; PBS formulation vehicle with 50% Transcutol, pH 7.4, aqueous with cosolvent or surfactant or cyclodextrin, PBS vehicle containing 50% Transcutol, 24 hours at room temperature)?
Its solubility at 24 h is ≥ 1 mg/mL.

What about the solubility at 24 h ([1]; formulation vehicles containing PEG 400, pH 7.4, aqueous with cosolvent or surfactant or cyclodextrin, vehicles containing PEG 400, 24 hours at room temperature) of the same compound?
Its solubility at 24 h is ~0.3 mg/mL.

What about the chemical degradation ([2]; 25° C./60% RH) of the same compound?
The chemical degradation was “partial chemical degradation”.

And the chemical degradation ([2]; 40° C./75% RH)?
The chemical degradation was “more degradation”.

And the AUClast/Dose ([3]; 5 mg/kg IV)?
Its AUClast/Dose is 1410 kg·nM·h/mg.

And the “AUC∞/Dose” value ([3]; 5 mg/kg IV)?
Its value is 1440 kg·nM·h/mg.

And the Cl ([3]; 5 mg/kg IV)?
The Cl was 0.000705 mg/h/nM/kg.

And the Vss ([3]; 5 mg/kg IV)?
The Vss was 0.00347 mg/nM/kg.

And the Vz ([3]; 5 mg/kg IV)?
Its Vz is 0.00471 mg/nM/kg.

And the AUClast/Dose ([3]; 5 mg/kg PO)?
Its AUClast/Dose is 551 kg·nM·h/mg.

And the “AUC∞/Dose” value ([3]; 5 mg/kg PO)?
The value was 562 kg·nM·h/mg.

And the F ([3]; 5 mg/kg PO)?
The F was 39.0%.

And the AUClast/Dose ([3]; 20 mg/kg PO)?
Its AUClast/Dose is 488 kg·nM·h/mg.

And the “AUC∞/Dose” value ([3]; 20 mg/kg PO)?
Its value is 504 kg·nM·h/mg.

And the F ([3]; 20 mg/kg PO)?
Its F is 35.0%.

What about the AUC(0-inf) ([3]; 5 mg/kg IV) of the same compound?
Its AUC(0-inf) is 7.2 µM·h.

What about the AUC(0-t) ([3]; 5 mg/kg IV) of the same compound?
Its AUC(0-t) is 7.06 µM·h.

What about the AUC(0-inf) ([3]; 5 mg/kg PO) of the same compound?
The AUC(0-inf) was 2.81 µM·h.

And the AUC(0-t) ([3]; 5 mg/kg PO)?
The AUC(0-t) was 2.75 µM·h.

What about the Cmax ([3]; 5 mg/kg PO) of the same compound?
The Cmax was 0.343 µM.

What about the Tmax ([3]; 5 mg/kg PO) of the same compound?
Its Tmax is 4 h.

What about the AUC(0-inf) ([3]; 20 mg/kg PO) of the same compound?
Its AUC(0-inf) is 10.1 µM·h.

And the AUC(0-t) ([3]; 20 mg/kg PO)?
Its AUC(0-t) is 9.76 µM·h.

And the Cmax ([3]; 20 mg/kg PO)?
Its Cmax is 1.08 µM.

And the Tmax ([3]; 20 mg/kg PO)?
The Tmax was 4 h.

And the “AUC(0-12 h)/Dose” value ([4]; 5 mg/kg IV (10 mg/kg/day))?
Its value is 1070 kg·nM·h/mg.

What about the “AUC(12-24 h)/Dose” value ([4]; 5 mg/kg IV (10 mg/kg/day)) of the same compound?
Its value is 1480 kg·nM·h/mg.

And the AUClast/Dose ([4]; 5 mg/kg IV (10 mg/kg/day))?
Its AUClast/Dose is 1410 kg·nM·h/mg.

What about the Cl ([4]; 5 mg/kg IV (10 mg/kg/day)) of the same compound?
The Cl was 0.000733 mg/h/nM/kg.

What about the Vss ([4]; 5 mg/kg IV (10 mg/kg/day)) of the same compound?
The Vss was 0.0076 mg/nM/kg.

What about the Vz ([4]; 5 mg/kg IV (10 mg/kg/day)) of the same compound?
Its Vz is 0.00265 mg/nM/kg.

And the “AUC(0-12 h)/Dose” value ([4]; 5 mg/kg PO (10 mg/kg/day))?
The value was 487 kg·nM·h/mg.

What about the “AUC(12-24 h)/Dose” value ([4]; 5 mg/kg PO (10 mg/kg/day)) of the same compound?
The value was 490 kg·nM·h/mg.

And the AUClast/Dose ([4]; 5 mg/kg PO (10 mg/kg/day))?
The AUClast/Dose was 488 kg·nM·h/mg.

And the F ([4]; 5 mg/kg PO (10 mg/kg/day))?
The F was 34.6%.

What about the Cmax1 ([4]; 5 mg/kg PO (10 mg/kg/day)) of the same compound?
Its Cmax1 is 0.564 µM.

And the Tmax1 ([4]; 5 mg/kg PO (10 mg/kg/day))?
The Tmax1 was 3-4$ h.

And the Cmax2 ([4]; 5 mg/kg PO (10 mg/kg/day))?
Its Cmax2 is 0.488 µM.

What about the Tmax2 ([4]; 5 mg/kg PO (10 mg/kg/day)) of the same compound?
Its Tmax2 is 13-14$ h.

What about the “AUC(0-12 h)/Dose” value ([4]; 20 mg/kg PO (40 mg/kg/day)) of the same compound?
Its value is 395 kg·nM·h/mg.

And the “AUC(12-24 h)/Dose” value ([4]; 20 mg/kg PO (40 mg/kg/day))?
The value was 313 kg·nM·h/mg.

What about the AUClast/Dose ([4]; 20 mg/kg PO (40 mg/kg/day)) of the same compound?
Its AUClast/Dose is 318 kg·nM·h/mg.

What about the F ([4]; 20 mg/kg PO (40 mg/kg/day)) of the same compound?
The F was 22.6%.

What about the Cmax1 ([4]; 20 mg/kg PO (40 mg/kg/day)) of the same compound?
Its Cmax1 is 0.821 µM.

And the Tmax1 ([4]; 20 mg/kg PO (40 mg/kg/day))?
The Tmax1 was 1-3$ h.

And the Cmax2 ([4]; 20 mg/kg PO (40 mg/kg/day))?
The Cmax2 was 1 µM.

What about the Tmax2 ([4]; 20 mg/kg PO (40 mg/kg/day)) of the same compound?
Its Tmax2 is 12.083-16$ h.

What about the AUC ([4]; 5 mg/kg IV (10 mg/kg/day)) of the same compound?
Its AUC is 7.38 µM·h.

What about the AUC ([4]; 5 mg/kg PO (10 mg/kg/day)) of the same compound?
Its AUC is 2.45 µM·h.

What about the AUC ([4]; 20 mg/kg PO (40 mg/kg/day)) of the same compound?
The AUC was 6.26 µM·h.

And the AUC(0-t) ([4]; iv, 5 mg/kg, 5 mg/kg IV (10 mg/kg/day), read-out: AUC(0-12 h))?
Its AUC(0-t) is 5.36 µM·h.

And the AUC(0-t) ([4]; iv, 5 mg/kg, 5 mg/kg IV (10 mg/kg/day), read-out: AUClast)?
The AUC(0-t) was 14.1 µM·h.

And the AUC(0-t) ([4]; po, 5 mg/kg, 5 mg/kg PO (10 mg/kg/day), read-out: AUC(0-12 h))?
The AUC(0-t) was 2.44 µM·h.

What about the AUC(0-t) ([4]; po, 5 mg/kg, 5 mg/kg PO (10 mg/kg/day), read-out: AUClast) of the same compound?
Its AUC(0-t) is 4.88 µM·h.

What about the AUC(0-t) ([4]; po, 20 mg/kg, 20 mg/kg PO (40 mg/kg/day), read-out: AUC(0-12 h)) of the same compound?
Its AUC(0-t) is 7.9 µM·h.

What about the AUC(0-t) ([4]; po, 20 mg/kg, 20 mg/kg PO (40 mg/kg/day), read-out: AUClast) of the same compound?
Its AUC(0-t) is 12.7 µM·h.

And the GI50 [5]?
Its GI50 is 8.17 nM.

— patent publication US11987582B2, “Maleate salts of triazolopyrazine derivatives, compositions, methods of use, and processes of manufacturing the same” (ABION Inc, priority 2021, dated 2024)
